Each structure is given as a SMILES string.

For the test, the target named is T1, E-selectin (Mus musculus, UniProt Q00690).
T1 sequence (Q00690 whole entry): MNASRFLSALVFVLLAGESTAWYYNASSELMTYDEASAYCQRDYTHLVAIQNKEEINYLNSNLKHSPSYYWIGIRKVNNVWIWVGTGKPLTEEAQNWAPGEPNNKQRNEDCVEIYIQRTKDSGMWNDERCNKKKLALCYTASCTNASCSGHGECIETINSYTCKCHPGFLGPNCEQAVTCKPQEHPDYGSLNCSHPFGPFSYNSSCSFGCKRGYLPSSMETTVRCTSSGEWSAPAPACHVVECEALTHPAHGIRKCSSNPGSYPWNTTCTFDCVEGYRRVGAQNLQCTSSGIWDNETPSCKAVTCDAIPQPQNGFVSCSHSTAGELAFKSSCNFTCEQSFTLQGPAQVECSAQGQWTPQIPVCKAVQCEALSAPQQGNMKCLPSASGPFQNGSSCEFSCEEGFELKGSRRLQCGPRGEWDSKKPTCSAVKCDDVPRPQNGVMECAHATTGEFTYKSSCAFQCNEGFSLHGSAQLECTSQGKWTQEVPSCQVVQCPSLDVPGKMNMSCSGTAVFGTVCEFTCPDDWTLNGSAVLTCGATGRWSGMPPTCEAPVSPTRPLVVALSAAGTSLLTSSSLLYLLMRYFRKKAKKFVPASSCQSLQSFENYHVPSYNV
Put plainly: Evaluated for the inhibitory activity against Selectin E.

As a reminder, the IC50 is the point on the concentration scale where inhibition reaches its midpoint. A lower IC50 goes with greater potency in that assay. Turning to `CCCCCCCCCCCCCCC(CCCCCCCCCCCCCC)C(=O)N[C@@H](CO[C@@H]1OC(C)[C@@H](O)[C@H](O)C1O)C(=O)N[C@H](CCC(=O)O)C(=O)NC` (stereo not given in full), the half-inhibitory concentration (IC50) amounted to 13 µM. The figure for `CCCCCCCCCCCCCCCCCC(=O)Nc1ccc(C(=O)Nc2cc(C(=O)O)ccc2Oc2cc(C(=O)O)cc(C(=O)O)c2)cc1` is above 500 µM; for `CCCCCCCCCCCCCCCCCC(=O)Nc1ccc(C(=O)CC(=O)Nc2cc(C(=O)O)ccc2Oc2cc(C(=O)O)cc(C(=O)O)c2)cc1` it is 1200 µM; for `CCCCCCCCCCCCCCCCCC(=O)Nc1ccc(C(=O)Nc2cc(C(=O)O)ccc2Oc2cccc(C(=O)O)c2)cc1` it is 86 µM. Under `CC(=O)N[C@H]1[C@H]([C@H](O)[C@H](O)CO)O[C@@](O[C@H]2[C@@H](O)[C@@H](CO)O[C@@H](O[C@@H]([C@H](O[C@@H]3O[C@@H](C)[C@@H](O)[C@@H](O)[C@@H]3O)[C@H](C=O)NC(C)=O)[C@H](O)CO)[C@@H]2O)(C(=O)O)C[C@@H]1O` [SIALYL LEWIS X] stands 580 µM.

Source of the values: ChEMBL document CHEMBL1133590, “Study on selectin blocker. 8. Lead discovery of a non-sugar antagonist using a 3D-pharmacophore model” (J Med Chem, 2000).
